Measurements reported in patent US11931424B2, “Combination MCL-1 inhibitors with anti-body drug conjugates” (Gilead Sciences, Inc., priority 2021, dated 2024).

System: panel of breast cancer cell lines
Assay: Compound A with targeted agents and chemotherapies, 72-hour in vitro proliferation assays
Type: cell-based
Conditions: compound A × partner, 72-hour proliferation

## Cn1ncnc1[C@H]1c2n[nH]c(=O)c3cc(F)cc(c23)N[C@@H]1c1ccc(F)cc1 [BMN 673]
AU565 cell line
  Best CI: 0.72
  Bliss Volume: 5.62
  HSA volume: 2.94
  Synergy Score: 8.12
BT-20 cell line
  Best CI: 0.67
  Bliss Volume: 6.61
  HSA volume: 7.19
  Loewe Volume: 7.05
  Synergy Score: 13.00
CAL-51 cell line
  Best CI: 0.26
  Bliss Volume: 6.45
  HSA volume: 8.03
  Loewe Volume: 8.01
  Synergy Score: 6.14
CAL-85-1 cell line
  Best CI: 0.10
  Bliss Volume: 9.61
  HSA volume: 13.84
  Loewe Volume: 13.04
  Synergy Score: 13.48
CAL-120 cell line
  Best CI: 2.73
  Bliss Volume: −3.70
  HSA volume: −7.12
  Loewe Volume: −9.94
  Synergy Score: 0.01
CAL-148 cell line
  Best CI: 0.03
  Bliss Volume: 32.27
  HSA volume: 30.51
  Loewe Volume: 33.70
  Synergy Score: 51.37
CAMA-1 cell line
  Best CI: 0.44
  Bliss Volume: 14.84
  HSA volume: 11.15
  Loewe Volume: 11.46
DU-4475 cell line
  Best CI: 0.90
  Bliss Volume: 14.54
  HSA volume: 11.67
  Loewe Volume: 11.80
  Synergy Score: 12.59
EVSA-T cell line
  Best CI: 0.76
  Bliss Volume: 12.51
  HSA volume: 5.77
  Loewe Volume: 5.78
  Synergy Score: 7.17
HCC38
  Best CI: 0.09
  Bliss Volume: 12.68
  Loewe Volume: 13.43
  Synergy Score: 20.73
HCC70
  Best CI: 0.39
  Bliss Volume: 15.24
  HSA volume: 15.02
  Loewe Volume: 15.13
HCC1143 cell line
  Best CI: 0.53
  Bliss Volume: 0.82
  HSA volume: 2.15
  Loewe Volume: 1.38
  Synergy Score: 4.91
HCC1569
  Best CI: 0.55
  Bliss Volume: 9.55
  HSA volume: 11.82
  Loewe Volume: 11.51
  Synergy Score: 10.50
HCC1806
  Best CI: 0.15
  Bliss Volume: 15.34
  HSA volume: 21.19
  Loewe Volume: 21.61
  Synergy Score: 26.09
HCC1937
  Best CI: 0.51
  Bliss Volume: 5.18
  HSA volume: 0.65
  Loewe Volume: 4.96
  Synergy Score: 3.27
HCC1954
  Best CI: 0.56
  Bliss Volume: 7.66
  HSA volume: 7.39
  Loewe Volume: 8.33
  Synergy Score: 9.80
HCC2218
  Best CI: 0.90
  Bliss Volume: 1.41
  HSA volume: 0.71
  Loewe Volume: 0.15
  Synergy Score: 5.35
HDQ-P1
  Best CI: 0.91
  Bliss Volume: 0.31
  HSA volume: −0.95
  Loewe Volume: −0.15
  Synergy Score: 1.09
HMC-1-8
  Best CI: 0.22
  Bliss Volume: 22.38
  HSA volume: 11.38
  Loewe Volume: 11.09
  Synergy Score: 19.54
JIMT-1
  Best CI: 0.13
  Bliss Volume: −0.56
  HSA volume: −1.70
  Loewe Volume: −1.62
  Synergy Score: 1.28
KPL-1
  Best CI: 0.53
  Bliss Volume: −2.58
  HSA volume: 0.29
  Synergy Score: 1.84
